Read-outs that look alike come from different tables or passages of the source.
Legend:
[1] = test system: CHO K1 cells; assay: cells; format: cell-based, Chinese hamster; settings: for EC50: Cricetulus griseus, Ant-44 0.5 μM
Experimental: Various embodiments involve the concept that a non-toxic PTI agent would inhibit the uptake of the cytotoxic polyamine conjugate Ant-44 (11) and rescue cells from Ant-44 induced toxicity. For example, using the IC50 dose of Ant-44, PTIs could be identified by measuring a compound's ability to block Ant-44 entry and rescue cells back to >90% viability. […] This toxic dose of Ant-44 was kept constant throughout the assay, while the candidate PTI compound was added in increasing concentrations up to its MTD.
Compounds (9 and 10) were tested at 5 μM and 7 μM. CHO K1 cells were treated in a 96-well plate with a toxic dose of Ant-44 (2.4 μM) alone and dosed with the candidate compounds (at 5 μM and 7 μM) and incubated for 48 h at 37° C.
To further explore this effect, development of various embodiments included modifying an original screen to use a lower dose of Ant-44 (0.5 μM) to improve the dose range of 9 and 10 that could be tested. In this regard, Ant-44 was dosed at 0.5 μM alone and in combination with increasing doses of compounds 9 (1666.177) and 10 (1666.255) and the CHO K1 cells were incubated for 48 h at 37° C., and the results are shown in FIG. 5. The red line represents the % cell viability of the Ant-44 only control. The Ant44 potentiation assay EC50 value is defined as the concentration of the candidate compound required to decrease the cell viability to half that of the Ant-44 only control. Both compounds 9 and 10 were effective at decreasing cell viability, when used in combination with Ant-44 in a dose dependent fashion.
FIG. 5 is an example according to various embodiments, illustrating potentiation of Ant-44 toxicity by compounds 9 and 10 in CHO K1 cells. Cells were incubated for 48 h at 37° C. with the respective compound and a fixed concentration of cytotoxic Ant-44 (0.5 μM). A 1 mM AG solution was incubated with the CHO K1 cells for 24 h prior to the addition of candidate compound. This was necessary to protect Ant-44 from the amine oxidases present in the media containing fetal bovine serum. […] Both compounds are nontoxic at the highest concentration tested (5 μM).

[2] = test system: L3.6pl cells; assay: Ant-44 toxicity potentiation assay in L3.6pl cells; format: cell-based, human
Experimental: As performed previously with CHO K1 cells, L3.6pl cells were treated with compounds 9 (1666.177) and 10 (1666.255) and a fixed dose of Ant-44 to observe the potentiation effect. The 72 h IC50 dose of Ant-44 in L3.6pl cells was previously determined to be 4 μM. For this study, half that dose was used to replicate the large window used in the CHO experiments to look at reduction in cell viability. In a 96-well plate, L3.6pl cells were dosed with a fixed concentration of Ant-44 (2 μM) and increasing doses of compounds 9 (1666.177) and 10 (1666.255). Although both compounds were effective at reducing cell viability, higher doses were required compared to CHO K1 cells.
FIG. 6 is an example according to various embodiments, illustrating the ability of compounds 9 (1666.177) and 10 ([…]) to potentiate the effect of Ant-44 in L3.6pl cells. Cells were incubated for 72 h at 37° C. with the respective compound and Ant-44 (2 μM). A 250 μM AG solution was incubated with the cells for 24 h prior to addition of compounds. […] Both compounds are nontoxic at the second highest concentration tested (1 μM).

[3] = test system: CHO-MG cells; assay: Cytotoxicity IC50 (MTS) in polyamine-transport-deficient CHO-MG cells; format: cell-based, Chinese hamster; settings: Cricetulus griseus, 48 h
Experimental: Regarding the biological studies performed in the following examples, it is noted that CHO K1, CHO-MG, and L3.6pl cells were grown in RPMI 1640 medium supplemented with 10% fetal bovine serum (FBS) and 1% penicillin/streptomycin. All cells were grown at 37° C. under a humidified 5% CO2 atmosphere. Aminoguanidine (1 mM used for CHO K1 and CHOMG cells and 250 μM for L3.6pl) was added to the growth medium to prevent oxidation of the compounds of the bovine serum amine oxidase enzyme that is present in calf serum. The cells used were in early to mid log phase and CHO and CHOMG were plated out at 1000 cells/well, whereas the L3.6pl cells were plated at 500 cells/well in a 96 well plate format.
This example illustrates aspects according to various embodiments pertaining to IC50 determinations and cell viability studies. Cell growth was assayed in sterile 96-well microtiter plates (Costar 3599, Corning, N.Y.). CHO K1 or CHOMG cells were plated at 1,000 cells/70 μL and L3.6pl cells at 500 cells/70 μL. […] After drug exposure (e.g., for 48 h for CHO K1 and CHO-MG and 48 h or 72 h for L3.6pl), cell growth was determined by measuring formazan formation from the 3-(4,5dimethylthiazol-2-yl)-5-(3-carboxymethoxyphenyl)-2-(4-sulfenyl)-2H tetrazolium, inner salt (MTS) using SynergyMx Biotek microplate reader for absorbance (490 nm) measurements.^27 All experiments were run in triplicate.

[4] = test system: L3.6pl cells; assay: Rescue by exogenous native polyamines in L3.6pl cells; format: cell-based, human; settings: 72 h, polyamine 1 μM or 5 μM, compound 10 at toxic dose (5 μM or higher)
Experimental: The question remained as to whether exogenous polyamines could enter and ‘rescue’ the cells back to the growth rate of untreated control. A series of experiments were conducted to determine if cells treated with compound 10 could be rescued by exogenous polyamines. To test this hypothesis, L3.6pl cells were incubated for 72 h with an increasing dose of compound 10 and a dose of one of the native polyamines (putrescine, spermidine, or spermine either at a fixed dose of 1 μM or 5 μM).
FIG. 10A is an example according to various embodiments, illustrating the inability of native polyamine putrescine (Put at 1 μM and 5 μM) to rescue L3.6pl cells treated with compound 10 (e.g., from 2-15 μM). FIG. 10B is an example according to various embodiments, illustrating inability of native polyamine spermidine (Spd at 1 μM and 5 μM) to rescue L3.6pl cells treated with compound 10 (e.g., from 2-15 μM). FIG. 10C is an example according to various embodiments, illustrating inability of the native polyamine spermine (Spm at 1 μM and 5 μM) to rescue L3.6pl cells treated with compound 10 (2-15 μM). The L3.6pl cells were incubated with 250 μM aminoguanidine (AG) for 24 h prior to the addition of compound 10, followed by 72 h incubation at 37° C. […]

## CC(C)CCN1CCN(C(CNCc2ccccc2)CC2CCCCC2)CC1CC(C)C.Cl.Cl.Cl (stereo not shown) [Compound 10, Benzyl-{3-cyclohexyl-2-[3-isobutyl-4-(3-methyl-butyl)-piperazin-1-yl]-propyl}-amine trihydrochloride salt]
[1]; CHO K1 cells
  times more effective at potentiating Ant-44 than compound 9: approximately 12.5 times
[1]; CHO K1 cells, 48 h (FIG. 5), read-out: Ant-44 potentiation EC50
  EC50: 60 nM
[1]; CHO cells, 48 h, read-out: Ant44 potentiation assay EC50
  EC50: 60 nM
[2]
  effectiveness at increasing the potency of Ant-44 relative to compound 9: approximately eleven times more effective
[2]; Homo sapiens, Ant-44 2 μM, 72 h
  EC50: 290 ± 100 nM
[3]
  IC50: 8930 ± 750 nM
[4]
  rescue of treated cells by putrescine, spermidine or spermine: none of the three native polyamines (at 1 μM or 5 μM) were able to rescue

From patent US20210317090A1, “AMINO ACID DEPLETION AGENTS AS ANTIPROLIFERATIVE AGENTS” (University of Central Florida Research Foundation, Inc., priority 2018, published 2021)
